Measured values published in patent US6660742B2, “Compositions and methods of the use thereof achiral analogues of CC-1065 and the duocarmycins” (priority 2000, dated 2003).
Read-outs that look alike come from different tables or passages of the source.

Tests used:
IGROV1 = experiment: NCI screen, IGROV1 (Ovarian Cancer); assay type: cell-based, human; settings: IGROV1, 48 hour exposure
Description: (§1) The compounds of this invention were also tested against the panel of 60 human cancer cell lines at the National Cancer Institute, Bethesda, Md. […] The cytrotoxicity studies were conducted using a 48 hour exposure, and measuring the optical density of sulforhodamide B-derived color.

UO-31 = experiment: NCI screen, UO-31 (Renal Cancer); settings: UO-31, 48 hour exposure
Description: as §1

MCF7 = experiment: NCI screen, MCF7 (Breast Cancer)
Description: as §1

CAKI-1 = experiment: NCI screen, CAKI-1 (Renal Cancer); settings: CAKI-1, 48 hour exposure
Description: as §1

OVCAR-3 = experiment: NCI screen, OVCAR-3 (Ovarian Cancer)
Description: as §1

NCI-H226 = experiment: NCI screen, NCI-H226 (Non-Small Cell Lung Cancer); assay type: cell-based, human
Description: as §1

LOX IMVI = experiment: NCI screen, LOX IMVI (Melanoma); settings: LOX IMVI, 48 hour exposure
Description: The compounds of this invention were also tested against the panel of 60 human cancer cell lines at the National Cancer Institute, Bethesda, Md. (44). The cytrotoxicity studies were conducted using a 48 hour exposure, and measuring the optical density of sulforhodamide B-derived color.

RXF 393 = experiment: NCI screen, RXF 393 (Renal Cancer)
Description: as §1

MDA-N = experiment: NCI screen, MDA-N (Breast Cancer); settings: MDA-N, 48 hour exposure
Description: as §1

SR = experiment: NCI screen, SR (Leukemia)
Description: as §1

K-562 = experiment: NCI screen, K-562 (Leukemia)
Description: as §1

TK-10 = experiment: NCI screen, TK-10 (Renal Cancer); settings: TK-10, 48 hour exposure
Description: as §1

UACC-62 = experiment: NCI screen, UACC-62 (Melanoma)
Description: as §1

HT29 = experiment: NCI screen, HT29 (Colon Cancer)
Description: as §1

PC-3 = experiment: NCI screen, PC-3 (Prostrate Cancer)
Description: as §1

CCRF-CEM = experiment: NCI screen, CCRF-CEM (Leukemia)
Description: as §1

SN12C = experiment: NCI screen, SN12C (Renal Cancer)
Description: as §1

HOP-62 = experiment: NCI screen, HOP-62 (Non-Small Cell Lung Cancer)
Description: as §1

SNB-19 = experiment: NCI screen, SNB-19 (CNS Cancer)
Description: as §1

[1] = Log10 Concentration −4.3, 48 hour exposure
[2] = Log10 Concentration −5.3, 48 hour exposure
[3] = Log10 Concentration −6.3, 48 hour exposure
[4] = Log10 Concentration −7.3, 48 hour exposure
[5] = Log10 Concentration −8.3, 48 hour exposure

COC(=O)c1[nH]c2c(O)cc(NC(=O)c3cc4cc(OC)c(OC)c(OC)c4[nH]3)c(CCCl)c2c1C(=O)OC [Compound 22, Dimethyl 4-(2-chloroethyl)-7-hydroxy-5-(5,6,7-trimethoxyindole-2-carboxamido)indole-2,3-dicarboxylate]
TGI (IGROV1): 1.62E−07 Molar | Percent Growth (IGROV1; Log10 Concentration −4.3): −80% | Percent Growth (IGROV1; Log10 Concentration −5.3): −35% | Percent Growth (IGROV1; Log10 Concentration −6.3): −59% | Percent Growth (IGROV1; Log10 Concentration −7.3): 61% | Percent Growth (IGROV1; Log10 Concentration −8.3): 71% | Percent Growth (UO-31; Log10 Concentration −4.3): 8% | Percent Growth (UO-31; Log10 Concentration −5.3): 5% | Percent Growth (UO-31; Log10 Concentration −6.3): −47% | Percent Growth (UO-31; Log10 Concentration −7.3): 91% | Percent Growth (UO-31; Log10 Concentration −8.3): 96% | Percent Growth (A549/ATCC; [1]): 5% | Percent Growth (A549/ATCC; [2]): 12% | Percent Growth (A549/ATCC; [3]): −6% | Percent Growth (A549/ATCC; [4]): 93% | Percent Growth (A549/ATCC; [5]): 108% | TGI (MCF7; 48 hour exposure): 6.31E−06 Molar | Percent Growth (MCF7; [1]): −51% | Percent Growth (MCF7; [2]): 6% | Percent Growth (MCF7; [3]): 6% | Percent Growth (MCF7; [4]): 39% | Percent Growth (MCF7; [5]): 70% | TGI (CAKI-1): 8.01E−06 Molar | Percent Growth (CAKI-1; Log10 Concentration −4.3): −40% | Percent Growth (CAKI-1; Log10 Concentration −5.3): 10% | Percent Growth (CAKI-1; Log10 Concentration −6.3): 12% | Percent Growth (CAKI-1; Log10 Concentration −7.3): 83% | Percent Growth (CAKI-1; Log10 Concentration −8.3): 97% | TGI (OVCAR-3; 48 hour exposure): 6.80E−06 Molar | Percent Growth (OVCAR-3; [1]): −82% | Percent Growth (OVCAR-3; [2]): 13% | Percent Growth (OVCAR-3; [3]): 4% | Percent Growth (OVCAR-3; [4]): 87% | Percent Growth (OVCAR-3; [5]): 97% | TGI (NCI-H226; 48 hour exposure): 2.21E−07 Molar | Percent Growth (NCI-H226; [1]): −76% | Percent Growth (NCI-H226; [2]): −55% | Percent Growth (NCI-H226; [3]): −38% | Percent Growth (NCI-H226; [4]): 69% | Percent Growth (NCI-H226; [5]): 104% | TGI (LOX IMVI): 3.84E−07 Molar | Percent Growth (LOX IMVI; Log10 Concentration −4.3): −61% | Percent Growth (LOX IMVI; Log10 Concentration −5.3): −23% | Percent Growth (LOX IMVI; Log10 Concentration −6.3): −9% | Percent Growth (LOX IMVI; Log10 Concentration −7.3): 66% | Percent Growth (LOX IMVI; Log10 Concentration −8.3): 81% | TGI (RXF 393; 48 hour exposure): 1.31E−06 Molar | Percent Growth (RXF 393; [1]): −65% | Percent Growth (RXF 393; [2]): −25% | Percent Growth (RXF 393; [3]): 18% | Percent Growth (RXF 393; [4]): 57% | Percent Growth (RXF 393; [5]): 94% | TGI (RPMI-8226): >5.00E−05 Molar | TGI (HCT-15): 4.00E−06 Molar | Percent Growth (MDA-N; Log10 Concentration −4.3): 8% | Percent Growth (MDA-N; Log10 Concentration −5.3): −3% | Percent Growth (MDA-N; Log10 Concentration −6.3): 5% | Percent Growth (MDA-N; Log10 Concentration −7.3): 91% | Percent Growth (MDA-N; Log10 Concentration −8.3): 90% | TGI (SR; 48 hour exposure): >5.00E−05 Molar | CC50 (SR; Homo sapiens, 48 h, read-out: LC50): > 50 µM | Percent Growth (SR; [1]): 20% | Percent Growth (SR; [2]): 27% | Percent Growth (SR; [3]): 21% | Percent Growth (SR; [4]): 28% | Percent Growth (SR; [5]): 51% | TGI (K-562; 48 hour exposure): >5.00E−05 Molar | Percent Growth (K-562; [1]): 36% | Percent Growth (K-562; [2]): 34% | Percent Growth (K-562; [3]): 43% | Percent Growth (K-562; [4]): 77% | Percent Growth (K-562; [5]): 94% | TGI (KM12): 2.03E−07 Molar | TGI (TK-10): >5.00E−05 Molar | Percent Growth (TK-10; Log10 Concentration −4.3): 8% | Percent Growth (TK-10; Log10 Concentration −5.3): 22% | Percent Growth (TK-10; Log10 Concentration −6.3): 31% | Percent Growth (TK-10; Log10 Concentration −7.3): 102% | Percent Growth (TK-10; Log10 Concentration −8.3): 100% | TGI (UACC-62; 48 hour exposure): 1.85E−07 Molar | Percent Growth (UACC-62; [1]): −89% | Percent Growth (UACC-62; [2]): −78% | Percent Growth (UACC-62; [3]): −58% | Percent Growth (UACC-62; [4]): 76% | Percent Growth (UACC-62; [5]): 90% | TGI (HT29; 48 hour exposure): 2.28E−07 Molar | Percent Growth (HT29; [1]): −55% | Percent Growth (HT29; [2]): −59% | Percent Growth (HT29; [3]): −32% | Percent Growth (HT29; [4]): 63% | Percent Growth (HT29; [5]): 84% | TGI (PC-3; 48 hour exposure): 6.40E−07 Molar | Percent Growth (PC-3; [1]): −88% | Percent Growth (PC-3; [2]): −32% | Percent Growth (PC-3; [3]): 4% | Percent Growth (PC-3; [4]): 55% | Percent Growth (PC-3; [5]): 81% | TGI (CCRF-CEM; 48 hour exposure): >5.00E−05 Molar | Percent Growth (CCRF-CEM; [1]): 17% | Percent Growth (CCRF-CEM; [2]): 18% | Percent Growth (CCRF-CEM; [3]): 19% | Percent Growth (CCRF-CEM; [4]): 43% | Percent Growth (CCRF-CEM; [5]): 77% | TGI (SN12C; 48 hour exposure): 7.17E−06 Molar | Percent Growth (SN12C; [1]): −50% | Percent Growth (SN12C; [2]): 9% | Percent Growth (SN12C; [3]): 22% | Percent Growth (SN12C; [4]): 84% | Percent Growth (SN12C; [5]): 90% | TGI (HOP-62; 48 hour exposure): 2.51E−07 Molar | Percent Growth (HOP-62; [1]): −88% | Percent Growth (HOP-62; [2]): −39% | Percent Growth (HOP-62; [3]): −34% | Percent Growth (HOP-62; [4]): 80% | Percent Growth (HOP-62; [5]): 92% | TGI (SNB-19; 48 hour exposure): 1.64E−05 Molar | Percent Growth (SNB-19; [1]): −7% | Percent Growth (SNB-19; [2]): 7% | Percent Growth (SNB-19; [3]): 21% | Percent Growth (SNB-19; [4]): 83% | Percent Growth (SNB-19; [5]): 89%
